In patent US4087421A, “Substituted benzodiazepines and method of use” (American Cyanamid Company, priority 1977, dated 1978):

How the values were obtained:
Assay type in all cases: in vivo
[1] = Prevention of reserpine-induced hypothermia in rats; conditions: for ED50: Rattus norvegicus, oral, dose column in mg/kg, read-out: ED50 (95% C.L.)
Description: Groups of 5 rats were treated orally with graded doses of the test compounds. One hour later the animals were treated with reserpine (solubilized in propylene glycol and citric acid) at a dose of 5 mg/kg intraperitoneally. Rectal temperatures were measured using a YSI Telethermometer. Temperatures were recorded just prior to treatment, one hour later just prior to reserpine administration and at hourly intervals following reserpine administration for 5 hours. […]

[2] = Inhibition of tetrabenazine induced depression of exploratory behavior in mice; conditions: for Number Responded/Number Treated: intraperitoneally or orally, 1 h before tetrabenazine 30 mg/kg; for ED50: Mus musculus, calculated by method of Finney, dose column in mg/kg, read-out: ED50 (95% C.L.)
Description: Varying doses of the test compounds are administered intraperitoneally or orally to 5 mice one hour before the administration of tetrabenazine hexamate at an intraperitoneal dose of 30 mg/kg which is known to depress markedly the exploratory behavior of normal mice. Thirty minutes later the mice are tested for their exploratoy behavior. Individual mice are placed in the center of a horizontal disc. Inhibition of the depression induced by tetrabenazine is considered present if the mice perform one or more of the following actions within 10 seconds after being placed on the disc:
(1) Animals move to the edge of the disc and pear over the side.
(2) Animals move 180° in place.
(3) Animals display a head movement of 90° immediately followed by a head movement in the opposite direction of at least 45°.
Administration of the test compounds to additional groups of 5 mice is repeated, the numbers of individual animals showing an anti-depressant response (normal exploratory behavior) is recorded and the results are analyzed by the following scheme (statistically standardized; significant P = less than 0.05).
The results from several dose levels (acceptance in at least two sequential test procedures) are then used to establish the Range of Active Doses.

[3] = Enhancement of yohimbine lethality in mice; conditions: 25 mg/kg intraperitoneal, yohimbine 34 mg/kg
Description: The test compounds were administered intraperitoneally, at various dose levels, to groups of 10 mice. One hour later all mice received yohimbine at a dose (34 mg/kg) estimated to have a lethal effect in 4% of the mice. Deaths were recorded 18 to 24 hours later.

[4] = 5 mg/kg oral, 2 hours after reserpine
[5] = 5 mg/kg oral, 3 hours after reserpine
[6] = 5 mg/kg oral, 4 hours after reserpine
[7] = 5 mg/kg oral, 5 hours after reserpine
[8] = 10 mg/kg oral, 2 hours after reserpine
[9] = 10 mg/kg oral, 3 hours after reserpine
[10] = 10 mg/kg oral, 4 hours after reserpine
[11] = 10 mg/kg oral, 5 hours after reserpine
[12] = 20 mg/kg oral, 2 hours after reserpine
[13] = 20 mg/kg oral, 3 hours after reserpine
[14] = 20 mg/kg oral, 4 hours after reserpine
[15] = 20 mg/kg oral, 5 hours after reserpine

| SMILES | Percent of Animals Showing > Two Standard Deviations in Rectal Temperature Over Control Means [1, 4] [%] | Percent of Animals Showing > Two Standard Deviations in Rectal Temperature Over Control Means [1, 5] [%] | Percent of Animals Showing > Two Standard Deviations in Rectal Temperature Over Control Means [1, 6] [%] | Percent of Animals Showing > Two Standard Deviations in Rectal Temperature Over Control Means [1, 7] [%] | Percent of Animals Showing > Two Standard Deviations in Rectal Temperature Over Control Means [1, 8] [%] | Percent of Animals Showing > Two Standard Deviations in Rectal Temperature Over Control Means [1, 9] [%] | Percent of Animals Showing > Two Standard Deviations in Rectal Temperature Over Control Means [1, 10] [%] | Percent of Animals Showing > Two Standard Deviations in Rectal Temperature Over Control Means [1, 11] [%] | Percent of Animals Showing > Two Standard Deviations in Rectal Temperature Over Control Means [1, 12] [%] | Percent of Animals Showing > Two Standard Deviations in Rectal Temperature Over Control Means [1, 13] [%] | Percent of Animals Showing > Two Standard Deviations in Rectal Temperature Over Control Means [1, 14] [%] | Percent of Animals Showing > Two Standard Deviations in Rectal Temperature Over Control Means [1, 15] [%] | ED50 ([1]; 2 hours after reserpine) [mg/kg] | ED50 ([1]; 3 hours after reserpine) [mg/kg] | ED50 ([1]; 4 hours after reserpine) [mg/kg] | Number Responded/Number Treated ([2]; 3.13 mg/kg) | Number Responded/Number Treated ([2]; 6.25 mg/kg) | Number Responded/Number Treated ([2]; 12.5 mg/kg) | Number Responded/Number Treated ([2]; 25.0 mg/kg) | ED50 [2] [mg/kg] | also measured |
| --- | --- | --- | --- | --- | --- | --- | --- | --- | --- | --- | --- | --- | --- | --- | --- | --- | --- | --- | --- | --- | --- |
| CN1c2ccccc2N=C(N2CCN(CCO)CC2)c2cscc21 [4-(4-Methyl-4H-thieno[3,4-b][1,5]-benzodiazepin-10-yl)-1-piperazineethanol] | 0 | 0 | 0 | 0 | 80 | 80 | 80 | 80 | 100 | 80 | 80 | 40 | 9.1 | 10.6 | 10.6 | 10/30 | 9/20 | 11/20 | 10/20 | 13 | ED50 ([1]; 5 hours after reserpine): 14.6 mg/kg; Number Responded/Number Treated ([2]; 1.56 mg/kg): 5/30 |
| CCN1c2ccccc2N=C(N2CCN(C)CC2)c2cscc21 [4-Ethyl-10-(4-methyl-1-piperazinyl)-4H-thieno[3,4-b][1,5]benzodiazepine] | 0 | 0 | 0 | 0 | 60 | 100 | 60 | 20 | 80 | 80 | 100 | 60 | 11.6 | 8.7 | 9.7 | 3/15 | 10/30 | 9/25 | 9/20 | ~37 | ED50 ([1]; 5 hours after reserpine): 16.9 mg/kg; Number Dead/Number Treated ([3]; 18 hours): 7/10; Number Dead/Number Treated ([3]; 24 hours): 8/10 |
| CN1c2ccccc2N=C(N2CCNCC2)c2cscc21 [4-Methyl-10-(1-piperazinyl)-4H-thieno[3,4-b][1,5]benzodiazepine] |  |  |  |  |  |  |  |  |  |  |  |  |  |  |  | 10/30 | 9/20 | 11/20 | 10/20 | 13 | Number Responded/Number Treated ([2]; 1.56 mg/kg): 5/30 |
